Laboratory results taken from publication PMC11576293, “New series of 4,6-diaryl pyrimidines: facile synthesis and antiproliferative activity as dual EGFR/VEGFR-2 inhibitors” (Frontiers in Chemistry, 2024).

Columns and labels:
Assay in all cases: NCI-60 single-dose screen
Format in all cases: cell-based
[1] = tested on: SN12C; details: Homo sapiens, single dose 10 µM, '-' = no inhibition, read-out: % Growth Inhibition
Outline: (§1)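 Was run as a one-dose (10 μM) screen by the NCI Developmental Therapeutics Program, covering 60 tumour cell lines from nine cancer types including renal, melanoma and CNS.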

[2] = tested on: SK-OV-3; details: Homo sapiens, single dose 10 µM, '-' = no inhibition, read-out: % Growth Inhibition
Outline: as §1

[3] = tested on: DU-145; details: Homo sapiens, single dose 10 µM, '-' = no inhibition, read-out: % Growth Inhibition
Outline: as §1

[4] = tested on: SW-620; details: Homo sapiens, single dose 10 µM, '-' = no inhibition, read-out: % Growth Inhibition
Outline: as §1

[5] = tested on: OVCAR-4; details: Homo sapiens, single dose 10 µM, '-' = no inhibition, read-out: % Growth Inhibition
Outline: as §1

[6] = tested on: SK-MEL-5; details: Homo sapiens, single dose 10 µM, '-' = no inhibition, read-out: % Growth Inhibition
Outline: as §1

[7] = tested on: SF-268; details: Homo sapiens, single dose 10 µM, '-' = no inhibition, read-out: % Growth Inhibition
Outline: as §1

[8] = tested on: 786-0; details: Homo sapiens, single dose 10 µM, '-' = no inhibition, read-out: % Growth Inhibition
Outline: as §1

[9] = tested on: UACC-257; details: Homo sapiens, single dose 10 µM, '-' = no inhibition, read-out: % Growth Inhibition
Outline: as §1

[10] = tested on: HCC-2998; details: Homo sapiens, single dose 10 µM, '-' = no inhibition, read-out: % Growth Inhibition
Outline: as §1

[11] = tested on: COLO 205; details: Homo sapiens, single dose 10 µM, '-' = no inhibition, read-out: % Growth Inhibition
Outline: as §1

[12] = tested on: A498; details: Homo sapiens, single dose 10 µM, '-' = no inhibition, read-out: % Growth Inhibition
Outline: as §1

[13] = tested on: SF-295; details: Homo sapiens, single dose 10 µM, '-' = no inhibition, read-out: % Growth Inhibition
Outline: as §1

[14] = tested on: MALME-3M; details: Homo sapiens, single dose 10 µM, '-' = no inhibition, read-out: % Growth Inhibition
Outline: as §1

[15] = tested on: TK-10; details: Homo sapiens, single dose 10 µM, '-' = no inhibition, read-out: % Growth Inhibition
Outline: as §1

[16] = tested on: IGROV1; details: Homo sapiens, IGROV-1, single dose 10 µM, '-' = no inhibition, read-out: % Growth Inhibition
Outline: as §1

[17] = tested on: PC-3; details: Homo sapiens, single dose 10 µM, '-' = no inhibition, read-out: % Growth Inhibition
Outline: as §1

[18] = tested on: HOP-92; details: Homo sapiens, single dose 10 µM, '-' = no inhibition, read-out: % Growth Inhibition
Outline: as §1

[19] = tested on: T-47D; details: Homo sapiens, T47D, single dose 10 µM, '-' = no inhibition, read-out: % Growth Inhibition
Outline: as §1

[20] = tested on: HCT-116; details: Homo sapiens, single dose 10 µM, '-' = no inhibition, read-out: % Growth Inhibition
Outline: as §1

[21] = tested on: K-562; details: Homo sapiens, K562, single dose 10 µM, '-' = no inhibition, read-out: % Growth Inhibition
Outline: as §1

[22] = tested on: U251; details: Homo sapiens, U-251, single dose 10 µM, '-' = no inhibition, read-out: % Growth Inhibition
Outline: as §1

[23] = tested on: RXF 393; details: Homo sapiens, single dose 10 µM, '-' = no inhibition, read-out: % Growth Inhibition
Outline: as §1

[24] = tested on: RPMI-8226; details: Homo sapiens, single dose 10 µM, '-' = no inhibition, read-out: % Growth Inhibition
Outline: as §1

[25] = tested on: HOP-62; details: Homo sapiens, single dose 10 µM, '-' = no inhibition, read-out: % Growth Inhibition
Outline: as §1

[26] = tested on: BT-549; details: Homo sapiens, single dose 10 µM, '-' = no inhibition, read-out: % Growth Inhibition
Outline: as §1

[27] = tested on: SK-MEL-2; details: Homo sapiens, single dose 10 µM, '-' = no inhibition, read-out: % Growth Inhibition
Outline: as §1

[28] = tested on: EKVX; details: Homo sapiens, single dose 10 µM, '-' = no inhibition, read-out: % Growth Inhibition
Outline: as §1

[29] = tested on: OVCAR-5; details: Homo sapiens, single dose 10 µM, '-' = no inhibition, read-out: % Growth Inhibition
Outline: as §1

[30] = tested on: A549/ATCC; details: Homo sapiens, single dose 10 µM, '-' = no inhibition, read-out: % Growth Inhibition
Outline: as §1

[31] = tested on: HL-60(TB); details: Homo sapiens, single dose 10 µM, '-' = no inhibition, read-out: % Growth Inhibition
[32] = tested on: SF-539; details: Homo sapiens, single dose 10 µM, '-' = no inhibition, read-out: % Growth Inhibition
Outline: as §1

[33] = tested on: HS 578T; details: Homo sapiens, single dose 10 µM, '-' = no inhibition, read-out: % Growth Inhibition
Outline: as §1

[34] = tested on: CCRF-CEM; details: Homo sapiens, single dose 10 µM, '-' = no inhibition, read-out: % Growth Inhibition
Outline: as §1

[35] = tested on: MDA-MB-468; details: Homo sapiens, single dose 10 µM, '-' = no inhibition, read-out: % Growth Inhibition
Outline: as §1

[36] = tested on: NCI-H23; details: Homo sapiens, single dose 10 µM, '-' = no inhibition, read-out: % Growth Inhibition
Outline: as §1

[37] = tested on: M14; details: Homo sapiens, single dose 10 µM, '-' = no inhibition, read-out: % Growth Inhibition
Outline: as §1

[38] = tested on: HT29; details: Homo sapiens, HT-29, single dose 10 µM, '-' = no inhibition, read-out: % Growth Inhibition
Outline: as §1

[39] = tested on: NCI-H460; details: Homo sapiens, single dose 10 µM, '-' = no inhibition, read-out: % Growth Inhibition
Outline: as §1

[40] = tested on: MDA-MB-435; details: Homo sapiens, single dose 10 µM, '-' = no inhibition, read-out: % Growth Inhibition
Outline: as §1

[41] = tested on: SK-MEL-28; details: Homo sapiens, single dose 10 µM, '-' = no inhibition, read-out: % Growth Inhibition
Outline: as §1

[42] = tested on: SR; details: Homo sapiens, single dose 10 µM, '-' = no inhibition, read-out: % Growth Inhibition
Outline: as §1

[43] = tested on: KM12; details: Homo sapiens, single dose 10 µM, '-' = no inhibition, read-out: % Growth Inhibition
Outline: as §1

[44] = tested on: ACHN 1; details: Homo sapiens, single dose 10 µM, '-' = no inhibition, read-out: % Growth Inhibition
Outline: as §1

[45] = tested on: OVCAR-8; details: Homo sapiens, single dose 10 µM, '-' = no inhibition, read-out: % Growth Inhibition
Outline: as §1

[46] = tested on: MCF7; details: Homo sapiens, single dose 10 µM, '-' = no inhibition, read-out: % Growth Inhibition
Outline: as §1

[47] = tested on: NCI-H322M; details: Homo sapiens, single dose 10 µM, '-' = no inhibition, read-out: % Growth Inhibition
Outline: as §1

[48] = tested on: SNB-75; details: Homo sapiens, single dose 10 µM, '-' = no inhibition, read-out: % Growth Inhibition
Outline: as §1

C=CCSc1nc(-c2ccc(OC)cc2)cc(-c2cccc(OC)c2)n1 [Compound 20, 2-(Allylthio)-6-(3-methoxyphenyl)-4-(4-methoxyphenyl)pyrimidine]
inhibition at 10 µM [1]: 6.16% | inhibition at 10 µM [2]: < 0% | inhibition at 10 µM [3]: < 0% | inhibition at 10 µM [4]: < 0% | inhibition at 10 µM [5]: 5.65% | inhibition at 10 µM [6]: 1.41% | inhibition at 10 µM [7]: < 0% | inhibition at 10 µM [8]: < 0% | inhibition at 10 µM [9]: < 0% | inhibition at 10 µM [10]: 2.37% | inhibition at 10 µM [11]: < 0% | inhibition at 10 µM [12]: < 0% | inhibition at 10 µM [13]: 3.19% | inhibition at 10 µM [14]: < 0% | inhibition at 10 µM [15]: < 0% | inhibition at 10 µM [16]: < 0% | inhibition at 10 µM [17]: < 0% | inhibition at 10 µM [18]: < 0% | inhibition at 10 µM [19]: 21.5% | inhibition at 10 µM [20]: 5.47% | inhibition at 10 µM [21]: 11.8% | inhibition at 10 µM [22]: < 0% | inhibition at 10 µM [23]: < 0% | inhibition at 10 µM [24]: 4.53% | inhibition at 10 µM [25]: < 0% | inhibition at 10 µM [26]: < 0% | inhibition at 10 µM [27]: < 0% | inhibition at 10 µM [28]: 4.8% | inhibition at 10 µM [29]: < 0% | inhibition at 10 µM [30]: 1.93% | inhibition at 10 µM [31]: 31.3% | inhibition at 10 µM [32]: < 0% | inhibition at 10 µM [33]: < 0% | inhibition at 10 µM [34]: 3.61% | inhibition at 10 µM [35]: 1.99% | inhibition at 10 µM [36]: 1.43% | inhibition at 10 µM [37]: 4.9% | inhibition at 10 µM [38]: 8.08% | inhibition at 10 µM [39]: < 0% | inhibition at 10 µM [40]: 1.82% | inhibition at 10 µM [41]: < 0% | inhibition at 10 µM [42]: 13% | inhibition at 10 µM [43]: < 0% | inhibition at 10 µM [44]: < 0% | inhibition at 10 µM [45]: 0.92% | inhibition at 10 µM [46]: 12.5% | inhibition at 10 µM [47]: < 0% | inhibition at 10 µM [48]: < 0%

COc1ccc(-c2cc(-c3ccc(Cl)cc3)nc(SC)n2)cc1OC [Compound 23, 4-(4-Chlorophenyl)-6-(3,4-dimethoxyphenyl)-2-(methylthio)pyrimidine]
inhibition at 10 µM [1]: 20.2% | inhibition at 10 µM [2]: 2.94% | inhibition at 10 µM [3]: 9.83% | inhibition at 10 µM [4]: 1.5% | inhibition at 10 µM [5]: 27.5% | inhibition at 10 µM [6]: 24.5% | inhibition at 10 µM [7]: 11.5% | inhibition at 10 µM [8]: 6.05% | inhibition at 10 µM [9]: 10% | inhibition at 10 µM [10]: < 0% | inhibition at 10 µM [11]: 8.14% | inhibition at 10 µM [12]: < 0% | inhibition at 10 µM [13]: 12.4% | inhibition at 10 µM [14]: < 0% | inhibition at 10 µM [15]: < 0% | inhibition at 10 µM [16]: < 0% | inhibition at 10 µM [17]: 15.7% | inhibition at 10 µM [18]: < 0% | inhibition at 10 µM [19]: 25.5% | inhibition at 10 µM [20]: 33.7% | inhibition at 10 µM [21]: 39% | inhibition at 10 µM [22]: 11.6% | inhibition at 10 µM [23]: < 0% | inhibition at 10 µM [24]: 20.1% | inhibition at 10 µM [25]: < 0% | inhibition at 10 µM [26]: 4.8% | inhibition at 10 µM [27]: 8.95% | inhibition at 10 µM [28]: 23.1% | inhibition at 10 µM [29]: 11.9% | inhibition at 10 µM [30]: 19.8% | inhibition at 10 µM [31]: 18.4% | inhibition at 10 µM [32]: 15.7% | inhibition at 10 µM [33]: 17% | inhibition at 10 µM [34]: 17.9% | inhibition at 10 µM [35]: 6.77% | inhibition at 10 µM [36]: 7.41% | inhibition at 10 µM [37]: 0.3% | inhibition at 10 µM [38]: 26.4% | inhibition at 10 µM [39]: 11.4% | inhibition at 10 µM [40]: 18% | inhibition at 10 µM [41]: 8.87% | inhibition at 10 µM [42]: 34% | inhibition at 10 µM [43]: 25.4% | inhibition at 10 µM [44]: 9.14% | inhibition at 10 µM [45]: 3.78% | inhibition at 10 µM [46]: 23.9% | inhibition at 10 µM [47]: < 0% | inhibition at 10 µM [48]: < 0%
